Results reported in ChEMBL document CHEMBL1201862, “PubChem BioAssay data set” (2004).
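Each compound was tested at five concentrations against cells in 96-well plates for 48 hours. GI50: concentration for 50% inhibition of growth.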 Calls of active or inactive are those of the source. No stated cut-off is given here; in the data, active = GI50 up to about 1.1 µM and inactive = higher.

How the values were obtained:
Assay in all cases: growth of human tumour cells (NCI), 48 h
HT-29 = system: HT-29
SF-268 = system: SF-268
SN12C = system: SN12C
RPMI-8226 = system: RPMI-8226
ACHN = system: ACHN
MOLT-4 = system: MOLT-4
HCT-15 = system: HCT-15
MDA-MB-231 = system: MDA-MB-231
SK-MEL-28 = system: SK-MEL-28
MDA-MB-435 = system: MDA-MB-435
SNB-75 = system: SNB-75
HCT-116 = system: HCT-116
MCF7 = system: MCF7
U-251 = system: U-251
UACC-62 = system: UACC-62
DU-145 = system: DU-145
HCC 2998 = system: HCC 2998
UO-31 = system: UO-31
T47D = system: T47D
HL-60 = system: HL-60
Malme-3M = system: Malme-3M
M14 = system: M14
MDA-N = system: MDA-N
HOP-62 = system: HOP-62
NCI-H522 = system: NCI-H522
K562 = system: K562
CCRF-CEM = system: CCRF-CEM
SF-539 = system: SF-539
EKVX = system: EKVX
A498 = system: A498
SR = system: SR
SK-OV-3 = system: SK-OV-3
PC-3 = system: PC-3
OVCAR-3 = system: OVCAR-3
UACC-257 = system: UACC-257
SNB-19 = system: SNB-19
SK-MEL-2 = system: SK-MEL-2
SK-MEL-5 = system: SK-MEL-5
COLO 205 = system: COLO 205
OVCAR-5 = system: OVCAR-5
786-0 = system: 786-0
RXF 393 = system: RXF 393
NCI-H460 = system: NCI-H460
TK-10 = system: TK-10
SF-295 = system: SF-295
NCI/ADR-RES = system: NCI/ADR-RES
NCI-H23 = system: NCI-H23
A549 = system: A549
OVCAR-4 = system: OVCAR-4
HOP-92 = system: HOP-92
CAKI-1 = system: CAKI-1
SW-620 = system: SW-620
IGROV-1 = system: IGROV-1
NCI-H226 = system: NCI-H226
KM12 = system: KM12
OVCAR-8 = system: OVCAR-8

SMILES: CCOC(=O)C(NC(=O)CC)(C(F)(F)F)P(=O)(OCC)OCC (configuration not stated)
- GI50 (HT-29): > 100 µM (inactive)
- GI50 (SF-268): > 100 µM (inactive)
- GI50 (SN12C): > 100 µM (inactive)
- GI50 (RPMI-8226): > 100 µM (inactive)
- GI50 (ACHN): > 100 µM (inactive)
- GI50 (MOLT-4): > 100 µM (inactive)
- GI50 (HCT-15): > 100 µM
- GI50 (MDA-MB-231): > 100 µM (inactive)
- GI50 (SK-MEL-28): > 100 µM (inactive)
- GI50 (MDA-MB-435): > 100 µM (inactive)
- GI50 (SNB-75): > 100 µM (inactive)
- GI50 (HCT-116): > 100 µM (inactive)
- GI50 (MCF7): > 100 µM (inactive)
- GI50 (U-251): > 100 µM (inactive)
- GI50 (UACC-62): > 100 µM (inactive)
- GI50 (DU-145): > 100 µM (inactive)
- GI50 (HCC 2998): > 100 µM (inactive)
- GI50 (UO-31): > 100 µM (inactive)
- GI50 (T47D): > 100 µM (inactive)
- GI50 (HL-60): > 100 µM (inactive)
- GI50 (Malme-3M): > 100 µM (inactive)
- GI50 (M14): > 100 µM (inactive)
- GI50 (MDA-N): > 100 µM (inactive)
- GI50 (HOP-62): > 100 µM (inactive)
- GI50 (NCI-H522): > 100 µM (inactive)
- GI50 (K562): > 100 µM (inactive)
- GI50 (CCRF-CEM): > 100 µM (inactive)
- GI50 (SF-539): > 100 µM (inactive)
- GI50 (EKVX): > 100 µM (inactive)
- GI50 (A498): > 100 µM (inactive)
- GI50 (SR): > 100 µM (inactive)
- GI50 (SK-OV-3): > 100 µM (inactive)

SMILES: COc1cc(/C=C/c2ccc(S(N)(=O)=O)cc2)cc(OC)c1
- GI50 (SN12C): 22.6 µM (inactive)
- GI50 (PC-3): 19.5 µM (inactive)
- GI50 (OVCAR-3): 16.5 µM (inactive)
- GI50 (UACC-257): 20.3 µM (inactive)
- GI50 (SNB-19): 39.1 µM (inactive)
- GI50 (SK-MEL-2): 18.7 µM (inactive)
- GI50 (MDA-MB-231): 16.9 µM (inactive)
- GI50 (SK-MEL-28): 23.9 µM (inactive)
- GI50 (SNB-75): 14.1 µM (inactive)
- GI50 (HCT-116): 14.5 µM (inactive)
- GI50 (MCF7): 24.6 µM (inactive)
- GI50 (SK-MEL-5): 16.2 µM (inactive)
- GI50 (DU-145): 32.7 µM (inactive)
- GI50 (HCC 2998): 19.7 µM (inactive)
- GI50 (UO-31): 21.9 µM (inactive)
- GI50 (T47D): 8.18 µM (inactive)
- GI50 (COLO 205): 15.9 µM (inactive)
- GI50 (Malme-3M): 14.8 µM (inactive)
- GI50 (OVCAR-5): 39.8 µM (inactive)
- GI50 (M14): 51.2 µM (inactive)
- GI50 (786-0): 21.5 µM (inactive)
- GI50 (MDA-N): 20.6 µM (inactive)
- GI50 (RXF 393): 13.1 µM (inactive)
- GI50 (NCI-H460): 17.7 µM (inactive)
- GI50 (HOP-62): 28.9 µM (inactive)
- GI50 (TK-10): 22.4 µM (inactive)
- GI50 (EKVX): 22.4 µM (inactive)
- GI50 (A498): 18.2 µM (inactive)
- GI50 (SF-295): 22.6 µM (inactive)
- GI50 (SK-OV-3): 24.5 µM (inactive)
- GI50 (NCI/ADR-RES): 23.8 µM (inactive)

SMILES: C=CCNc1nc2c(N)ncnc2s1
- GI50 (SF-268): > 10 µM (inactive)
- GI50 (NCI-H23): > 10 µM (inactive)
- GI50 (A549): > 10 µM (inactive)
- GI50 (RPMI-8226): > 10 µM (inactive)
- GI50 (ACHN): > 10 µM (inactive)
- GI50 (SK-MEL-2): > 10 µM (inactive)
- GI50 (MOLT-4): > 10 µM (inactive)
- GI50 (OVCAR-4): > 10 µM (inactive)
- GI50 (SK-MEL-28): > 10 µM (inactive)
- GI50 (MDA-MB-435): > 10 µM (inactive)
- GI50 (SNB-75): > 10 µM (inactive)
- GI50 (MCF7): > 10 µM (inactive)
- GI50 (SK-MEL-5): > 10 µM (inactive)
- GI50 (U-251): > 10 µM (inactive)
- GI50 (UACC-62): > 10 µM (inactive)
- GI50 (T47D): > 10 µM (inactive)
- GI50 (COLO 205): > 10 µM (inactive)
- GI50 (HOP-92): > 10 µM (inactive)
- GI50 (HL-60): > 10 µM (inactive)
- GI50 (Malme-3M): > 10 µM (inactive)
- GI50 (OVCAR-5): > 10 µM (inactive)
- GI50 (CAKI-1): > 10 µM (inactive)
- GI50 (M14): > 10 µM (inactive)
- GI50 (786-0): > 10 µM (inactive)
- GI50 (SW-620): > 10 µM (inactive)
- GI50 (IGROV-1): > 10 µM (inactive)
- GI50 (RXF 393): > 10 µM (inactive)
- GI50 (NCI-H460): > 10 µM (inactive)
- GI50 (HOP-62): > 10 µM (inactive)
- GI50 (K562): > 10 µM (inactive)
- GI50 (CCRF-CEM): > 10 µM (inactive)
- GI50 (SR): > 10 µM (inactive)
- GI50 (SK-OV-3): > 10 µM (inactive)
- GI50 (NCI/ADR-RES): > 10 µM (inactive)

SMILES: COc1ccc(/C=C\c2cc(OC)c(OC)c(OC)c2)cc1OC(=O)C(N)CCC(=O)O (configuration not stated)
- GI50 (HT-29): 2.34 µM (inactive)
- GI50 (A549): 0.000944 µM (active)
- GI50 (NCI-H226): 0.00123 µM (active)
- GI50 (MCF7): 0.00187 µM (active)
- GI50 (786-0): 0.000792 µM (active)

SMILES: O=C(Nc1nccs1)c1cc2c(cc1Cl)Sc1nccn1S2(=O)=O
- GI50 (MDA-MB-435): 17.2 µM (inactive)
- GI50 (COLO 205): 16.7 µM (inactive)
- GI50 (HOP-92): 15.3 µM (inactive)
- GI50 (NCI-H460): 16 µM (inactive)

SMILES: CCC1=[N+]([O-])C(C)(C)NC1(C)C
- GI50 (HT-29): > 10 µM (inactive)
- GI50 (SF-268): > 10 µM (inactive)
- GI50 (NCI-H23): > 10 µM (inactive)
- GI50 (SN12C): > 10 µM (inactive)
- GI50 (PC-3): > 10 µM (inactive)
- GI50 (A549): > 10 µM (inactive)
- GI50 (ACHN): > 10 µM (inactive)
- GI50 (NCI-H226): 4.95 µM (inactive)
- GI50 (OVCAR-3): > 10 µM (inactive)
- GI50 (SNB-19): > 10 µM (inactive)
- GI50 (HCT-15): > 10 µM
- GI50 (OVCAR-4): > 10 µM (inactive)
- GI50 (MDA-MB-231): > 10 µM (inactive)
- GI50 (SK-MEL-28): > 10 µM (inactive)
- GI50 (MDA-MB-435): > 10 µM (inactive)
- GI50 (SNB-75): > 10 µM (inactive)
- GI50 (HCT-116): > 10 µM (inactive)
- GI50 (SK-MEL-5): > 10 µM (inactive)
- GI50 (U-251): > 10 µM (inactive)
- GI50 (DU-145): > 10 µM (inactive)
- GI50 (COLO 205): > 10 µM (inactive)
- GI50 (HOP-92): > 10 µM (inactive)
- GI50 (KM12): > 10 µM (inactive)
- GI50 (OVCAR-5): > 10 µM (inactive)
- GI50 (CAKI-1): > 10 µM (inactive)
- GI50 (M14): > 10 µM (inactive)
- GI50 (MDA-N): > 10 µM (inactive)
- GI50 (SW-620): > 10 µM (inactive)
- GI50 (IGROV-1): > 10 µM (inactive)
- GI50 (RXF 393): > 10 µM (inactive)
- GI50 (TK-10): > 10 µM (inactive)
- GI50 (SF-539): > 10 µM (inactive)
- GI50 (EKVX): > 10 µM (inactive)
- GI50 (OVCAR-8): > 10 µM (inactive)
- GI50 (SF-295): > 10 µM (inactive)
- GI50 (NCI/ADR-RES): > 10 µM (inactive)

SMILES: CC(=O)OC(C)c1cc2c(s1)C(=O)c1c(C(C)OC(C)=O)csc1C2=O (configuration not stated)
- GI50 (HT-29): 2.21 µM (inactive)
- GI50 (SF-268): 3.01 µM (inactive)
- GI50 (SN12C): 0.682 µM (active)
- GI50 (PC-3): 2.3 µM (inactive)
- GI50 (A549): 1.97 µM (inactive)
- GI50 (RPMI-8226): 1.43 µM (inactive)
- GI50 (ACHN): 1.42 µM (inactive)
- GI50 (NCI-H226): 1.37 µM (inactive)
- GI50 (MOLT-4): 1.95 µM (inactive)
- GI50 (HCT-15): 1.58 µM
- GI50 (OVCAR-4): 1.3 µM (inactive)
- GI50 (MDA-MB-231): 1.55 µM (inactive)
- GI50 (SNB-75): 2.74 µM (inactive)
- GI50 (HCT-116): 1.66 µM (inactive)
- GI50 (MCF7): 0.662 µM (active)
- GI50 (U-251): 1.18 µM (inactive)
- GI50 (DU-145): 0.586 µM (active)
- GI50 (HCC 2998): 1.73 µM (inactive)
- GI50 (UO-31): 1.55 µM (inactive)
- GI50 (T47D): 1.85 µM (inactive)
- GI50 (COLO 205): 1.91 µM (inactive)
- GI50 (HOP-92): 3.29 µM (inactive)
- GI50 (KM12): 1.25 µM (inactive)
- GI50 (OVCAR-5): 1.97 µM (inactive)
- GI50 (786-0): 1.89 µM (inactive)
- GI50 (SW-620): 0.0545 µM (active)
- GI50 (IGROV-1): 1.68 µM (inactive)
- GI50 (RXF 393): 1.31 µM (inactive)
- GI50 (NCI-H460): 0.5 µM (active)
- GI50 (HOP-62): 1.24 µM (inactive)
- GI50 (K562): 1.01 µM (active)
- GI50 (CCRF-CEM): 1.49 µM (inactive)
- GI50 (TK-10): 2.29 µM (inactive)
- GI50 (SF-539): 1.11 µM (active)
- GI50 (EKVX): 1.74 µM (inactive)
- GI50 (A498): 2.13 µM (inactive)
- GI50 (SR): > 100 µM (inactive)
- GI50 (SF-295): 1.28 µM (inactive)
- GI50 (SK-OV-3): 3.6 µM (inactive)
- GI50 (NCI/ADR-RES): 1.26 µM (inactive)
